Laboratory results reported in the NIST ThermoML archive (doi:10.1021/je100823t).

Experiments:
[1] = 101 kPa, Liquid; for viscosity: Capillary tube (Ostwald / Ubbelohde) method; for mass density: Pycnometric method
[2] = xn = mol fraction of the nth substance listed; conditions: 101 kPa, Liquid; for viscosity: Capillary tube (Ostwald / Ubbelohde) method; for mass density: Pycnometric method

Cc1cccc(C)c1 [1,3-dimethylbenzene]
[1]
Conditions	mass density [kg/m3]	viscosity [mPa·s]
308.15 K	851.3	0.521
318.15 K	842.7	0.47

CCCCCCO [hexan-1-ol] + Cc1ccccc1C
[2], x1 = 1
Conditions	mass density [kg/m3]	viscosity [mPa·s]
308.15 K	808.5	3.318
318.15 K	801.2	2.518

Cc1ccccc1C [1,2-dimethylbenzene]
[1]
Conditions	mass density [kg/m3]	viscosity [mPa·s]
308.15 K	866.7	0.666
318.15 K	858.4	0.591

Cc1cccc(C)c1 [1,3-dimethylbenzene] + CCCCCCO
[2]
Conditions	mass density, 308.15 K [kg/m3]	mass density, 318.15 K [kg/m3]	viscosity, 308.15 K [mPa·s]	viscosity, 318.15 K [mPa·s]
x2 = 0	851.3	842.7	0.521	0.47
x2 = 0.1002	846.4	837.6	0.562	0.502
x2 = 0.2002	841.7	833	0.638	0.561
x2 = 0.3007	837.2	828.7	0.742	0.643
x2 = 0.4001	833	824.6	0.875	0.747
x2 = 0.5	828.8	820.6	1.057	0.885
x2 = 0.5999	824.7	816.6	1.298	1.066
x2 = 0.6999	820.6	812.7	1.629	1.306
x2 = 0.7999	816.6	808.8	2.072	1.623
x2 = 0.8999	812.6	805	2.643	2.031

CCCCCCO [hexan-1-ol] + Cc1cccc(C)c1
[2], x1 = 1
Conditions	mass density [kg/m3]	viscosity [mPa·s]
308.15 K	808.5	3.318
318.15 K	801.2	2.518

Cc1ccc(C)cc1 [1,4-dimethylbenzene] + CCCCCCO
[2], x2 = 0
Conditions	mass density [kg/m3]	viscosity [mPa·s]
308.15 K	848.2	0.541
318.15 K	839.5	0.486

Cc1ccccc1C [1,2-dimethylbenzene] + CCCCCCO
[2]
Conditions	mass density, 308.15 K [kg/m3]	mass density, 318.15 K [kg/m3]	viscosity, 308.15 K [mPa·s]	viscosity, 318.15 K [mPa·s]
x2 = 0	866.7	858.4	0.666	0.591
x2 = 0.0999	860.1	851.7	0.709	0.621
x2 = 0.1999	853.9	845.6	0.789	0.683
x2 = 0.2999	847.9	839.7	0.899	0.768
x2 = 0.4001	842.1	833.9	1.043	0.879
x2 = 0.4997	836.4	828.3	1.23	1.02
x2 = 0.6	830.7	822.7	1.475	1.199
x2 = 0.7	825.1	817.2	1.799	1.431
x2 = 0.8	819.5	811.8	2.217	1.73
x2 = 0.8999	814	806.4	2.738	2.104

CCCCCCO [hexan-1-ol]
[1]
Conditions	mass density [kg/m3]	viscosity [mPa·s]
308.15 K	808.5	3.318
318.15 K	801.2	2.518

CCCCCCO [hexan-1-ol] + Cc1ccc(C)cc1
[2]
Conditions	mass density, 308.15 K [kg/m3]	mass density, 318.15 K [kg/m3]	viscosity, 308.15 K [mPa·s]	viscosity, 318.15 K [mPa·s]
x1 = 0.1001	843.6	834.9	0.578	0.513
x1 = 0.2001	839.4	830.8	0.647	0.567
x1 = 0.2999	835.4	826.9	0.742	0.643
x1 = 0.4001	831.4	823.1	0.87	0.743
x1 = 0.5009	827.5	819.3	1.046	0.877
x1 = 0.5999	823.7	815.6	1.279	1.051
x1 = 0.6999	819.9	811.9	1.602	1.287
x1 = 0.8	816.1	808.3	2.042	1.604
x1 = 0.9	812.3	804.7	2.618	2.017
x1 = 1	808.5	801.2	3.318	2.518

Cc1ccc(C)cc1 [1,4-dimethylbenzene]
[1]
Conditions	mass density [kg/m3]	viscosity [mPa·s]
308.15 K	848.2	0.541
318.15 K	839.5	0.486
